Columns and labels:
COS-1 cells [1] = test: ATP assay (CellTiter-Glo cell viability); assay type: cell-based; conditions: 24-h exposure; for reduction of cell viability (ATP content): 10 μM
Source text: To investigate the toxicity as a potential cause of decreased or increased activity in luciferase reporter gene assays, we tested a set of 40 active compounds in the COS-1 cell line used for the luciferase assays. Concentration-dependent toxic effects were investigated using the lactate dehydrogenase (LDH) assay to detect necrosis and the 3-(4,5-dimethylthiazol-2-yl)-2,5-diphenyltetrazolium bromide (MTT) assay as a measure of cell viability. […] For the data analysis, compounds were classified as toxic (Figures 5 and 7) if they induced a >10% decrease in cell viability in the MTT assay at the concentration of 10 μM. The most toxic compounds (35a, 35d, 54, 58, and 63–65) in the MTT assay all contained a phenyl substituent in the southern part ring, while the ortho-nitrophenyl-derivative 39g and the phenyl-substituted thiophene 47t were nontoxic. Higher flexibility in the central parts of the ethers (35a, 35d) and N-acylated amines (58, 64) might contribute to their toxicity, because less rigid compounds are more likely to have affinity to various biological targets. Such interactions can cause toxicity. To confirm and validate the results from MTT assays, we tested three nontoxic (2, 47s, and 72) and three toxic (1, 35a, and 58) compounds in a cell viability assay measuring intracellular ATP content.
Figure 5 Effects of selected compounds on COS-1 cell viability. (A) Compound-induced necrosis was quantified with the LDH assay after a 24-h compound exposure. The data are presented as cytotoxicity percentage (% of maximal LDH release). (B) Cell viability was analyzed with the MTT assay after a 24-h compound exposure. (A,B) The data are means from 2–3 independent experiments with 3 replicate wells in each and are presented as % of control (vehicle-treated cells). The compounds have been grouped on the basis of the structure of the central part: a, amide; b, ether; c, N-acylated amine; d, amine; and e, imine. (C) The effects of selected compounds on cell viability as determined by ATP content after a 24-h compound exposure. The data are mean + SEM from three independent experiments and are presented as % of vehicle-treated cells.
A selected set of compounds were tested also in the ATP assay by using CellTiter-Glo Luminescent Cell Viability assay (Promega). Subculturing and treatment of COS-1 cells were otherwise performed similar to that in the MTT test, but the final volume of treatment was 200 μL per well. Doxorubicin was used as a positive control in the assay. After treatment, the plates were equilibrated at room temperature for 30 min, after which the media was removed and cells were washed with 100 μL of PBS. Next, 50 μL of fresh media and 50 μL of mixed CellTiter Glo Reagent were added to the plate. The contents of the plates were mixed for 2 min, and incubated at room temperature for 15 min. The luminescence was measured with VarioskanTM LUX Multimode Plate Reader (Thermo Fisher Scientific, Waltham, MA) using SkanItTM Software 5.0.

COS-1 cells [2] = test: LDH assay (necrosis); assay type: cell-based

Row | Compound | reduction of cell viability (ATP content) (COS-1 cells [1]) [%] | LDH.1µM (COS-1 cells [2]; COS-1 cells) | LDH.3µM (COS-1 cells [2]; COS-1 cells) | LDH.10µM (COS-1 cells [2]; COS-1 cells) | LDH.30µM (COS-1 cells [2]; COS-1 cells) | toxicity in the ATP assay (in words) (COS-1 cells [1]) | LDH.1µM (COS-1 cells [2]) | LDH.3µM (COS-1 cells [2]) | LDH.10µM (COS-1 cells [2]) | LDH.30µM (COS-1 cells [2])
1 | CCN(CC)c1ccc(NC(=O)c2c(-c3ccccc3)noc2C)cc1 [Compound 1, N-[4-(Diethylamino)phenyl]-5-methyl-3-phenylisoxazole-4-carboxamide] | > 10 | 1.16 | 0.89 | -0.76 | -0.02 |  |  |  |  | 
2 | Cc1onc(-c2ccccc2)c1C(=O)N(C1=NC(C)CS1)c1ccc(Cl)cc1 (stereo not shown) [Compound 2] |  | 1.6 | 1.4 | 1.08 | 1.02 | no toxicity |  |  |  | 
3 | Cc1onc(-c2ccccc2)c1COc1ccc(C(=O)OCCC#N)cc1 [Compound 35a, 2-Cyanoethyl 4-[(5-Methyl-3-phenylisoxazol-4-yl)methoxy]benzoate] | > 10 |  |  |  |  |  | 0.51 | 1.44 | 1.72 | 1
4 | CCN(CC)c1ccc(NC(=O)c2cnsc2)cc1 [Compound 47s] |  |  |  |  |  | no toxicity | 3.18 | 0.65 | 1.08 | 0.91
5 | CCC(=O)N(Cc1ccc(N(CC)CC)cc1)c1c(-c2ccccc2)noc1C [Compound 58] | > 10 |  |  |  |  |  | 0.36 | -0.8 | -1.03 | 1.47
6 | COc1ccc(-c2cc(NC(=O)c3ccc(C(C)(C)C)cc3)n[nH]2)cc1 [Compound 72] |  |  |  |  |  | no toxicity | 2.2 | 0.82 | 0.22 | -0.27
7 | N-[4-(Diethylamino)phenyl]-3-methyl-5-(4-methyl-1,2,3-thiadiazol-5-yl)isoxazole-4-carboxamide [Compound 47c] |  |  |  |  |  |  | -0.01 | -0.17 | 0.1 | -0.11

Source: paper PMC7076710, “Synthesis, Identification, and Structure–Activity Relationship Analysis of GATA4 and NKX2-5 Protein–Protein Interaction Modulators” (Journal of Medicinal Chemistry, 2019)
